In ChEMBL document CHEMBL1201862, “PubChem BioAssay data set” (2004):
Calls of active or inactive are those of the source.

Assays:
[1] = biological target: T1, Voltage-gated N-type calcium channel alpha-1B subunit/Amyloid beta A4 precursor protein-binding family A member 1 (Homo sapiens, UniProt Q00975+Q02410); format: protein assay
[2] = biological target: T1, Voltage-gated N-type calcium channel alpha-1B subunit/Amyloid beta A4 precursor protein-binding family A member 1; format: protein assay; remark: listed apart in the source
[3] = test system: T-cell; experiment: inhibitors of CD8+ T cell–vesicle binding, dose response, mouse 2C CD8+ T cells, flow cytometry (AID 485284); format: functional
[4] = biological target: T2, Kappa-type opioid receptor (Homo sapiens, UniProt P41145); experiment: SAR analysis of small molecule antagonists of the kappa opioid receptor via a luminescent beta-arrestin assay - Set 3. [Related pubchem assays (depositor defined):AID1777, AID1778, AID1785, AID1786, AID1966, AID2133, AID2136, AID2285, AID2495]; format: functional
T2 sequence (P41145 whole entry): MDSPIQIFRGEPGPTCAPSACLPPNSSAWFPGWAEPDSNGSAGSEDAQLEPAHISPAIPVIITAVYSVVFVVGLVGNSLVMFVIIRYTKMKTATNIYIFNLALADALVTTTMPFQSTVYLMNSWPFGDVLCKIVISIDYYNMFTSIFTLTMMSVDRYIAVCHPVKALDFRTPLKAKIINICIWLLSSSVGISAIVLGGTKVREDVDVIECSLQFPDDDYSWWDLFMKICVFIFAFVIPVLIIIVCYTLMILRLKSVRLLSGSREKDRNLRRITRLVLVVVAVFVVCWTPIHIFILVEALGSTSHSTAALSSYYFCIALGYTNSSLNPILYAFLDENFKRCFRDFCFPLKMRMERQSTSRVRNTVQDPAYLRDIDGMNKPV

[5] = biological target: T2, Kappa-type opioid receptor; experiment: SAR analysis of Antagonists of the Kappa Opioid Receptor (KOR) using an Image-Based Assay - Set 3. [Related pubchem assays (depositor defined):AID1777, AID1785]; format: functional
[6] = biological target: Mu-type opioid receptor (Homo sapiens, UniProt P35372); experiment: SAR Analysis of Antagonists of the MOR Receptor using an Image-Based Assay - Set 3. [Related pubchem assays (depositor defined):AID1777, AID1785, AID1786, AID1966, AID2133, AID2136, AID2284, AID2285, AID2420]; format: functional
Chain of Mu-type opioid receptor (P35372 whole entry): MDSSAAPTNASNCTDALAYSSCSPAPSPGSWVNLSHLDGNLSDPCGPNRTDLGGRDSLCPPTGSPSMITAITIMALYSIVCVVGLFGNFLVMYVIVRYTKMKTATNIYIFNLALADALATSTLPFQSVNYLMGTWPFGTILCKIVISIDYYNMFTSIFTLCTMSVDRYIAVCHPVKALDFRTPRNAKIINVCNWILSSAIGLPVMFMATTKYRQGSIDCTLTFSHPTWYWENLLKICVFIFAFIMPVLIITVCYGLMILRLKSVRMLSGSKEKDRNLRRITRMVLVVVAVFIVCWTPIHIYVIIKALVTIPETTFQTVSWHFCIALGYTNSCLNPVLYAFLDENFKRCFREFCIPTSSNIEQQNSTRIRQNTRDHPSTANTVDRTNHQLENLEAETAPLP

[7] = biological target: Delta-type opioid receptor (Homo sapiens, UniProt P41143); experiment: SAR Analysis of Antagonists of the DOR Receptor using an Image-Based Assay - Set 3. [Related pubchem assays (depositor defined):AID1777, AID1785]; format: functional;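 also: U2OS cells expressing DOR1 and beta-arrestin GFP stimulated with 100 nM SNC80; imaging of GFP-tagged beta-arrestin moving into spots after receptor activation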
Chain of Delta-type opioid receptor (P41143 whole entry): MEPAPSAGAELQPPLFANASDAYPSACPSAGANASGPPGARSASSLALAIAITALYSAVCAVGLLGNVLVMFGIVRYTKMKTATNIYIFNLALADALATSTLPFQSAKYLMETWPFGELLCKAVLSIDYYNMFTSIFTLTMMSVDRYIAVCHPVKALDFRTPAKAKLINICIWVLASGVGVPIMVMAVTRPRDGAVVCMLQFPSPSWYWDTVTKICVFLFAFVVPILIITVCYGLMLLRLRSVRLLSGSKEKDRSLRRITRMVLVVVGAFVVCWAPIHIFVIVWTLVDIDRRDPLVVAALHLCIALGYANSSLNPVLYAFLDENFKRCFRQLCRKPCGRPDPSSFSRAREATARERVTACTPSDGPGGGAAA

[8] = biological target: Alkaline phosphatase, placental type (Homo sapiens, UniProt P05187); experiment: PLAP enzyme inhibitors, confirmation, biochemical, luminescence (AID 1512); format: functional
Chain of Alkaline phosphatase, placental type (P05187 whole entry): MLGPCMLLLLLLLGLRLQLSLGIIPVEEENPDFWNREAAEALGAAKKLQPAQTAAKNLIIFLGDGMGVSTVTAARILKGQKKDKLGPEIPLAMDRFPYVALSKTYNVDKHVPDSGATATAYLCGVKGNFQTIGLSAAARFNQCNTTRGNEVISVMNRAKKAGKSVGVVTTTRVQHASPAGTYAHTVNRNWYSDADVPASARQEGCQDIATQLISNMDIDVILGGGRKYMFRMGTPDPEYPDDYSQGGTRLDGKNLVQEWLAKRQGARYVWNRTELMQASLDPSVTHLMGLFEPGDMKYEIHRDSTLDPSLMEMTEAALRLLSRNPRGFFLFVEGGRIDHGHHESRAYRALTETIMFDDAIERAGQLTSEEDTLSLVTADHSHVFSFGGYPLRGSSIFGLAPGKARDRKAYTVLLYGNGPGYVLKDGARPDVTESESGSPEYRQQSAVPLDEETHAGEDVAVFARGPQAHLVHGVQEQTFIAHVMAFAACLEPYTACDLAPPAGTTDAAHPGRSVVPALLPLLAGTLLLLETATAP

[9] = biological target: T3, Alkaline phosphatase, tissue-nonspecific isozyme (Homo sapiens, UniProt P05186); experiment: human TNAP enzyme inhibitors, SAR follow-up, biochemical, luminescent, dose response (AID 1056)
T3 sequence (P05186 whole entry): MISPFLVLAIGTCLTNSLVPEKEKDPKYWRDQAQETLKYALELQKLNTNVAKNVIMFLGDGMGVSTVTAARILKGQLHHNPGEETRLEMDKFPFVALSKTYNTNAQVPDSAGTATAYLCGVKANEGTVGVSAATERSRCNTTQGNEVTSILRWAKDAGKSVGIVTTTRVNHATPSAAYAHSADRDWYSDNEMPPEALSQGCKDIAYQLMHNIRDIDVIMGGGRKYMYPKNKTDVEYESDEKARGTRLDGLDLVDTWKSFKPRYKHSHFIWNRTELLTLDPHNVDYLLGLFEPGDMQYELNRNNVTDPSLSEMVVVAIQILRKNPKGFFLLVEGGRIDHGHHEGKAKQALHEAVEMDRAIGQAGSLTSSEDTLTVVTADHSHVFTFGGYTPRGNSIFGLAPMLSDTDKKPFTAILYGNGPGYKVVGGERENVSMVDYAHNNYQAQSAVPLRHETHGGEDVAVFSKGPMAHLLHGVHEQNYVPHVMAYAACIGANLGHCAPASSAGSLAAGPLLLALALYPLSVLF

T1 sequence (Q00975 whole entry): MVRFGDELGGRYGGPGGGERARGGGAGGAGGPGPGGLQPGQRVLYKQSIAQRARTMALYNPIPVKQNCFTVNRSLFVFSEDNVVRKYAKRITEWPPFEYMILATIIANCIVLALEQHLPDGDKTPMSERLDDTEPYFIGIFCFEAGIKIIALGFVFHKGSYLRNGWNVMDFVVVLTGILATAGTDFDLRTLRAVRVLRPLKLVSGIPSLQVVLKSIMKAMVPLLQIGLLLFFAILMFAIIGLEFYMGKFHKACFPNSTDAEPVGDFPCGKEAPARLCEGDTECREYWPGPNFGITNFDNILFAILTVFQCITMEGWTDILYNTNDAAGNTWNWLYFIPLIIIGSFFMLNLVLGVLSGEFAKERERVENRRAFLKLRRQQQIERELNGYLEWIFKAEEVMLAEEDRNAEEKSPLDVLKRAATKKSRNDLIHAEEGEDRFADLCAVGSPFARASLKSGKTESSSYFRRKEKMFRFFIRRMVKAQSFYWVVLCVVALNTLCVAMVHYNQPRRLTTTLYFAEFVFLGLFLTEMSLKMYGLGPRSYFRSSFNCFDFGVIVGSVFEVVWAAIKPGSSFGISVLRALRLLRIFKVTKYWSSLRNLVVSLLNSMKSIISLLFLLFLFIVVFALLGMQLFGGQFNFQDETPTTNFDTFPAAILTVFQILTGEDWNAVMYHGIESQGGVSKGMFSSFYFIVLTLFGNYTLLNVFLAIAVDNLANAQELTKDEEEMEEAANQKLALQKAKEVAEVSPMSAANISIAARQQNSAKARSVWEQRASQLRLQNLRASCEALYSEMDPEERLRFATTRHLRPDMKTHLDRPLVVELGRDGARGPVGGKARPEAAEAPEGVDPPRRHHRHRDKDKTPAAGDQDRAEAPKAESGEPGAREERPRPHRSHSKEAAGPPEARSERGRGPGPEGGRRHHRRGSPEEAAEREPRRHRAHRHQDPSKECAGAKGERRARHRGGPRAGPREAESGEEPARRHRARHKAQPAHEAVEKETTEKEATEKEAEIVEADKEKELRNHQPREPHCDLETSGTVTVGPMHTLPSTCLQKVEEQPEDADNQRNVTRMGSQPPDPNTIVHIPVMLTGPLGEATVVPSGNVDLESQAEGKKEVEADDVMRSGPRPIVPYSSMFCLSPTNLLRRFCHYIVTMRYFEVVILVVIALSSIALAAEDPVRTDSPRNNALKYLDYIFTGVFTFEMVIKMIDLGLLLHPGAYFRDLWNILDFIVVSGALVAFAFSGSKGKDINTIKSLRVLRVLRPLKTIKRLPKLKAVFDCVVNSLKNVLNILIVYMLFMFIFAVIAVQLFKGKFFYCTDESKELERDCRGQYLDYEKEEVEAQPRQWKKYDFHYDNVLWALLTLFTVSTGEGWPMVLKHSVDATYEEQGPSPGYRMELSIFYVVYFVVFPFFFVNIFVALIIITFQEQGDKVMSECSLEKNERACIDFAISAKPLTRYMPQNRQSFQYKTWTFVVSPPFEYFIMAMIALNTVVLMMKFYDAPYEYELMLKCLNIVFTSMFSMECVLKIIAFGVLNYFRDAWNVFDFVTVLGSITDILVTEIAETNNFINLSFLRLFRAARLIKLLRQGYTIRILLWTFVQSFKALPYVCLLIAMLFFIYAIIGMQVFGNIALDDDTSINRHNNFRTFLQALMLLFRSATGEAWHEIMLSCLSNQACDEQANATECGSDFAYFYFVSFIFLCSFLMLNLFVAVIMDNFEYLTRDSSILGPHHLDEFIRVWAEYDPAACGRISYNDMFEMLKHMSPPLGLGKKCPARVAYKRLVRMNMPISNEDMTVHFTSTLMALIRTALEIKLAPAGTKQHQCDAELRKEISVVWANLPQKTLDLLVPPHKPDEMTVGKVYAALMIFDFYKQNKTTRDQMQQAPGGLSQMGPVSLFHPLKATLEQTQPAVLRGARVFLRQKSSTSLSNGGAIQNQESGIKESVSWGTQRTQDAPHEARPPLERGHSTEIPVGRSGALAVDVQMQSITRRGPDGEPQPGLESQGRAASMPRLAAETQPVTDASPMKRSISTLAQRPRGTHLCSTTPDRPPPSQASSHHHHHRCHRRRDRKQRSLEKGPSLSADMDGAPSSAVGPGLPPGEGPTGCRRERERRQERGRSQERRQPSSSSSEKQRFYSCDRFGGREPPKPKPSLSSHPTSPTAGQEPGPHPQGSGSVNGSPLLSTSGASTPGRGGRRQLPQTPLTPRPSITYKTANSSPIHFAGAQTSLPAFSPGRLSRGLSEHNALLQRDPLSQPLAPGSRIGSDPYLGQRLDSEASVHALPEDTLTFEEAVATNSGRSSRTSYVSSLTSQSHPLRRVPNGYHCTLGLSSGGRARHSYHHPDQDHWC
T1 sequence (Q02410 whole entry): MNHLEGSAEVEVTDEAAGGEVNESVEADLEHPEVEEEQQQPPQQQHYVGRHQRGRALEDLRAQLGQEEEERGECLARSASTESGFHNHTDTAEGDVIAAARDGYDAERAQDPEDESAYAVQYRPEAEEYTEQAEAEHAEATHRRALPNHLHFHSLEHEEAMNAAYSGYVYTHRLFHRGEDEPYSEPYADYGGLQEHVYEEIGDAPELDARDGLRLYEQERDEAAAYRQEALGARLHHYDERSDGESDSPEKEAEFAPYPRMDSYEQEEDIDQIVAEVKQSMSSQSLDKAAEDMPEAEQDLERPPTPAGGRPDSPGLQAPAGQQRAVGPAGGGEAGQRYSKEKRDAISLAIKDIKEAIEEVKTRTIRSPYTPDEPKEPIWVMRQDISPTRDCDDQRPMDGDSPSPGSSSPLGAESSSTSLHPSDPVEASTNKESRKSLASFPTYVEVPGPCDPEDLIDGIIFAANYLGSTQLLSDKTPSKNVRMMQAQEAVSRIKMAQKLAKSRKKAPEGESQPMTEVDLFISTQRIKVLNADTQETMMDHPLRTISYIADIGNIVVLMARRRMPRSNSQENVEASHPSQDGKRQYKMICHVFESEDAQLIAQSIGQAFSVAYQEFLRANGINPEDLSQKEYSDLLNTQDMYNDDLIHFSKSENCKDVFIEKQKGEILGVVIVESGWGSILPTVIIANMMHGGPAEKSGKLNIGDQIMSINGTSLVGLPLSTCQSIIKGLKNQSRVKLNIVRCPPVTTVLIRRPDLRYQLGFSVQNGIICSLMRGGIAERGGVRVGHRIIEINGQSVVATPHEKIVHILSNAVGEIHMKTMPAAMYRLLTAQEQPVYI

In the case of Cc1c(C)c2c(OCC(=O)Nc3cccnc3)cc3c(c2oc1=O)CCC(C)(C)O3, the IC50 [1] is reported as > 50 µM (inactive) and the IC50 [2] is reported as 12.1 µM (active).

For CN(C)C=O.O=C(COC(=O)C12CC3CC(CC(Br)(C3)C1)C2)Nc1cccc(S(=O)(=O)N2CCOCC2)c1, the EC50 [3] was 4.6 µM (active).

COc1ccc(CN(CCNC(=O)c2ccc(CNS(=O)(=O)c3ccc(C)cc3)cc2)C(C)C)cc1 was tested, and the IC50 [4] was 2.29 µM (active), the IC50 [5] was 0.532 µM (active) and the IC50 [6] was > 32 µM (inactive). For the same compound, the IC50 [7] was > 32 µM (inactive).

With CCOC(=O)NC1(C(Cl)(Cl)Cl)Oc2ccc(Cl)cc2O1 (centres undefined) the IC50 [8] was 55.5 µM (active) and the IC50 [9] was > 100 µM (inactive).
